The values below are quoted from earlier work in patent US7645459B2, “Dosage forms of bisphosphonates” (The Procter & Gamble Company, priority 2004, dated 2010).

The conditions of the data set: administration within 30 minutes of a meal.

For the compound `O=P(O)(O)C(O)(Cc1cccnc1)P(=O)(O)O` [risedronate, 1-hydroxy-2-(3-pyridinyl)-ethylidene-1,1-bisphosphonic acid], the “reduction of the amount absorbed compared to administration in the fasting state” value was 50%.
